Measured values reported in ChEMBL document CHEMBL4118098, “Discovery of DS28120313 as a potent orally active hepcidin production inhibitor: Design and optimization of novel 4,6-disubstituted indazole derivatives” (Bioorg Med Chem Lett, 2017).

Legend:
[1] = target: Glycogen synthase kinase-3 alpha (Homo sapiens) (UniProt P49840); experiment: Inhibition of GSK3-alpha (unknown origin) at 0.45 uM relative to control
[2] = target: CDK4/Cyclin D3 (Homo sapiens) (UniProt P11802+P30281); experiment: Inhibition of CDK4/CyclinD3 (unknown origin) at 0.19 uM relative to control; type: protein-complex assay
[3] = target: Misshapen-like kinase 1 (Homo sapiens) (UniProt Q8N4C8); experiment: Inhibition of MINK (unknown origin) at 0.19 uM relative to control
[4] = target: Serine/threonine-protein kinase pim-2 (Homo sapiens) (UniProt Q9P1W9); experiment: Inhibition of PIM2 (unknown origin) at 0.19 uM relative to control
Chain of Serine/threonine-protein kinase pim-2 (Homo sapiens) (Q9P1W9 whole entry, looked up): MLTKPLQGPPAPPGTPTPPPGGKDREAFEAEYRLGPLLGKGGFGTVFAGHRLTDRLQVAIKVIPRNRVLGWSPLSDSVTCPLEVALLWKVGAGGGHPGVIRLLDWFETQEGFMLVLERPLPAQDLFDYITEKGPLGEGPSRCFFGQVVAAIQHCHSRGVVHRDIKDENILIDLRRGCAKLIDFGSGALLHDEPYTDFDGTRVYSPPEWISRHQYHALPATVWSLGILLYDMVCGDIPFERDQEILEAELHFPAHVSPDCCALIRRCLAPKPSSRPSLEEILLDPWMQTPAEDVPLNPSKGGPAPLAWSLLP

[5] = target: Tyrosine-protein kinase Lyn (Homo sapiens) (UniProt P07948); experiment: Inhibition of LYN (unknown origin) at 0.19 uM relative to control
[6] = test system: Tyrosine-protein kinase ABL1 (Homo sapiens), P00519 [H396P]; experiment: Inhibition of Abl H396P mutant (unknown origin) at 0.19 uM relative to control
[7] = target: Serine/threonine-protein kinase 3 (Homo sapiens) (UniProt Q13188); experiment: Inhibition of MST2 (unknown origin) at 0.19 uM relative to control
Chain of Serine/threonine-protein kinase 3 (Homo sapiens) (Q13188 whole entry): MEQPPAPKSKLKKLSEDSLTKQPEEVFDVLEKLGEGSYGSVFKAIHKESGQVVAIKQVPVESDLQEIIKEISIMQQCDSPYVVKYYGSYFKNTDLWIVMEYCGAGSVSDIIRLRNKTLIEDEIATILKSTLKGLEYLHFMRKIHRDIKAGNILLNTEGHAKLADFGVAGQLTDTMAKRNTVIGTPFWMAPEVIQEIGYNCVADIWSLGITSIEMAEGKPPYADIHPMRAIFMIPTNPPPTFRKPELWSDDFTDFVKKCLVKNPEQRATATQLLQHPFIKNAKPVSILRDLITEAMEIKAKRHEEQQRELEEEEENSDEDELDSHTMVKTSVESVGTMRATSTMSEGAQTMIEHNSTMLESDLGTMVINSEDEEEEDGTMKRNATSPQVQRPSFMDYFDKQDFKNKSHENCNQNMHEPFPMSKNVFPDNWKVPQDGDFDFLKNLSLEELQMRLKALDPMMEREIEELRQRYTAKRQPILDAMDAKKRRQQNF

[8] = target: AMP-activated protein kinase, AMPK (Homo sapiens) (UniProt P54646+O43741+P54619+Q9UGJ0+Q9Y478+Q13131+Q9UGI9); experiment: Inhibition of AMPK (unknown origin) at 0.19 uM relative to control; type: protein-complex assay
[9] = target: SRSF protein kinase 3 (Homo sapiens) (UniProt Q9UPE1); experiment: Inhibition of MSSK1 (unknown origin) at 0.19 uM relative to control
[10] = test system: Leucine-rich repeat serine/threonine-protein kinase 2 (Homo sapiens), Q5S007 [G2019S]; experiment: Inhibition of LRRK2 G2019S mutant (unknown origin) at 0.19 uM relative to control
[11] = test system: Epidermal growth factor receptor (Homo sapiens), P00533 [T790M]; experiment: Inhibition of EGFR T790M mutant (unknown origin) at 0.19 uM relative to control
Chain of Epidermal growth factor receptor (Homo sapiens), P00533 [T790M] (P00533 whole entry T790M): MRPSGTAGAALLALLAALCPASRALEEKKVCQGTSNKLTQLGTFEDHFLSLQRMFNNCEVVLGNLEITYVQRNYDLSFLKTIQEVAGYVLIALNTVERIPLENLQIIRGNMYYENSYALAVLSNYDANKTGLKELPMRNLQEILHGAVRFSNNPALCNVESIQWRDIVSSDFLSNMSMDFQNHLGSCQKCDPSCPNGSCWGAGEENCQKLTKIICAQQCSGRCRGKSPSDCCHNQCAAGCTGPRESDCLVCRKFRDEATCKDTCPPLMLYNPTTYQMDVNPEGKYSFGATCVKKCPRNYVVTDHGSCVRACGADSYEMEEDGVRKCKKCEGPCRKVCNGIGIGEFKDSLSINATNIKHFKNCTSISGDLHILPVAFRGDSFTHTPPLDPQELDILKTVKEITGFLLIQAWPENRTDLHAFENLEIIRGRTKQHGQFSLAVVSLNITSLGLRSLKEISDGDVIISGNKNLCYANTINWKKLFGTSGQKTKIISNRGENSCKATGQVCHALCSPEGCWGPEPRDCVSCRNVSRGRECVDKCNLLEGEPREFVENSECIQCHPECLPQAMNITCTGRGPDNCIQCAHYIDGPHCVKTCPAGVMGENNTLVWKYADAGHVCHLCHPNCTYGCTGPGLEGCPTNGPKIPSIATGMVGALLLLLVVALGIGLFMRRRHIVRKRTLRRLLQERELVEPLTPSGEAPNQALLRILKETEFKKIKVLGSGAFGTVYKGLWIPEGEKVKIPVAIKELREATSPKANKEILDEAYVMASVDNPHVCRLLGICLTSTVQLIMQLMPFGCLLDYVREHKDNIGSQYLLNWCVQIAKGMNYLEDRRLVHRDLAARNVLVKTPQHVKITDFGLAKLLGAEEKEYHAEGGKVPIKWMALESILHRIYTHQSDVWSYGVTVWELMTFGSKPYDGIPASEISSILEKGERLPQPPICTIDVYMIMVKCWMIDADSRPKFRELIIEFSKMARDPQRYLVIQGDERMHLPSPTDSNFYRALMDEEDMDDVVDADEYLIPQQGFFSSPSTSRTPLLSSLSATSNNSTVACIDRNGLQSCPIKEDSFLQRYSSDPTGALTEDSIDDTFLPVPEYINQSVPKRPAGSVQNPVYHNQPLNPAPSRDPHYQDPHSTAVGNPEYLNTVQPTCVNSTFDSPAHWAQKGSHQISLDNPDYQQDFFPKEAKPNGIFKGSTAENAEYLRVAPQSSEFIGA

[12] = target: Ephrin type-A receptor 2 (Homo sapiens) (UniProt P29317); experiment: Inhibition of EPHA2 (unknown origin) at 0.19 uM relative to control
Chain of Ephrin type-A receptor 2 (Homo sapiens) (P29317 whole entry): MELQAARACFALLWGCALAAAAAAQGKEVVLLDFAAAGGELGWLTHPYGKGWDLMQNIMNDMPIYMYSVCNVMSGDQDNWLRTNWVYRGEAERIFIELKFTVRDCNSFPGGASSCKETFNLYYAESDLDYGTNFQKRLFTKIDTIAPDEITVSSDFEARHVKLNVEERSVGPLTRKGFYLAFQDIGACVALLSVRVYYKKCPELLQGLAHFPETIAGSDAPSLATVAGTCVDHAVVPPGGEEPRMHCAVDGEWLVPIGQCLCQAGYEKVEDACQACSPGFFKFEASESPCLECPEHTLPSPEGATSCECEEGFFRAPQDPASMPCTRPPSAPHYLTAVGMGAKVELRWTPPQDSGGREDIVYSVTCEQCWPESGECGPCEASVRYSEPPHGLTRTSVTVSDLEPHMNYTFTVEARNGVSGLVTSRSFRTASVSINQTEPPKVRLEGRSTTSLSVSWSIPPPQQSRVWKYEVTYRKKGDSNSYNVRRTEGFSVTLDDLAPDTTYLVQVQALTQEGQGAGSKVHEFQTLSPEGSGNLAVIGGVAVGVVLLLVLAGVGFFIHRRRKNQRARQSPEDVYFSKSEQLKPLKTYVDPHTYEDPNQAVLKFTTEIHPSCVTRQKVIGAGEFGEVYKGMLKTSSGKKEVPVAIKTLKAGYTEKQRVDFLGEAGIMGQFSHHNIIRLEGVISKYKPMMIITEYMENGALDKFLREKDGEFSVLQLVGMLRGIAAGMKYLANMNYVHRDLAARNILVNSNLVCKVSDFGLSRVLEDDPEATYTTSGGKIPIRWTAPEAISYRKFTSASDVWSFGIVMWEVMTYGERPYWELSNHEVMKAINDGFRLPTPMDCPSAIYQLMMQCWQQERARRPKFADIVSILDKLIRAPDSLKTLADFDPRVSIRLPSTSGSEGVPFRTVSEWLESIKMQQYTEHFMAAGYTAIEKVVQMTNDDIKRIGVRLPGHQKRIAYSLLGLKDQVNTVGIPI

[13] = target: Serine/threonine-protein kinase pim-3 (Homo sapiens) (UniProt Q86V86); experiment: Inhibition of PIM3 (unknown origin) at 0.19 uM relative to control
[14] = target: NUAK family SNF1-like kinase 1 (Homo sapiens) (UniProt O60285); experiment: Inhibition of NuaK1 (unknown origin) at 0.19 uM relative to control
[15] = target: Proto-oncogene tyrosine-protein kinase receptor Ret (Homo sapiens) (UniProt P07949); experiment: Inhibition of RET (unknown origin) at 0.19 uM relative to control
[16] = target: Mitogen-activated protein kinase 14 (Homo sapiens) (UniProt Q16539); experiment: Inhibition of p38a (unknown origin) at 0.19 uM relative to control
[17] = target: Protein kinase C gamma type (Homo sapiens) (UniProt P05129); experiment: Inhibition of PKC-gamma (unknown origin) at 0.19 uM relative to control
[18] = target: Serine/threonine-protein kinase MARK2 (Homo sapiens) (UniProt Q7KZI7); experiment: Inhibition of MARK2 (unknown origin) at 0.19 uM relative to control
[19] = target: Macrophage-stimulating protein receptor (Homo sapiens) (UniProt Q04912); experiment: Inhibition of MST1R (unknown origin) at 0.164 uM relative to control
[20] = target: Serine/threonine-protein kinase PAK 2 (Homo sapiens) (UniProt Q13177); experiment: Inhibition of PAK2 (unknown origin) at 0.164 uM relative to control
[21] = target: Tyrosine-protein kinase ABL2 (Homo sapiens) (UniProt P42684); experiment: Inhibition of Arg (unknown origin) at 0.164 uM relative to control
[22] = target: High affinity nerve growth factor receptor (Homo sapiens) (UniProt P04629); experiment: Inhibition of TRKA (unknown origin) at 0.164 uM relative to control
[23] = target: Ribosomal protein S6 kinase (Homo sapiens) (UniProt P51812+Q9UBS0+O75676+Q15349+O75582+P23443+Q9UK32+Q15418); experiment: Inhibition of p70S6K (unknown origin) at 0.164 uM relative to control; type: protein assay
[24] = test system: Mitogen-activated protein kinase 14 (Homo sapiens), Q16539 [T106M]; experiment: Inhibition of SAPK2a T106M mutant (unknown origin) at 0.164 uM relative to control
[25] = test system: Epidermal growth factor receptor (Homo sapiens), P00533 [T790M]; experiment: Inhibition of EGFR T790M mutant (unknown origin) at 0.164 uM relative to control
[26] = target: Tyrosine-protein kinase Yes (Homo sapiens) (UniProt P07947); experiment: Inhibition of Yes (unknown origin) at 0.164 uM relative to control
[27] = target: MAP kinase-activated protein kinase 3 (Homo sapiens) (UniProt Q16644); experiment: Inhibition of MAPKAPK3 (unknown origin) at 0.164 uM relative to control
[28] = target: Calcium/calmodulin-dependent protein kinase type 1 (Homo sapiens) (UniProt Q14012); experiment: Inhibition of CaMK1a (unknown origin) at 0.164 uM relative to control
[29] = target: Serine/threonine-protein kinase Chk2 (Homo sapiens) (UniProt O96017); experiment: Inhibition of CHK2 (unknown origin) at 0.164 uM relative to control
Chain of Serine/threonine-protein kinase Chk2 (Homo sapiens) (O96017 whole entry): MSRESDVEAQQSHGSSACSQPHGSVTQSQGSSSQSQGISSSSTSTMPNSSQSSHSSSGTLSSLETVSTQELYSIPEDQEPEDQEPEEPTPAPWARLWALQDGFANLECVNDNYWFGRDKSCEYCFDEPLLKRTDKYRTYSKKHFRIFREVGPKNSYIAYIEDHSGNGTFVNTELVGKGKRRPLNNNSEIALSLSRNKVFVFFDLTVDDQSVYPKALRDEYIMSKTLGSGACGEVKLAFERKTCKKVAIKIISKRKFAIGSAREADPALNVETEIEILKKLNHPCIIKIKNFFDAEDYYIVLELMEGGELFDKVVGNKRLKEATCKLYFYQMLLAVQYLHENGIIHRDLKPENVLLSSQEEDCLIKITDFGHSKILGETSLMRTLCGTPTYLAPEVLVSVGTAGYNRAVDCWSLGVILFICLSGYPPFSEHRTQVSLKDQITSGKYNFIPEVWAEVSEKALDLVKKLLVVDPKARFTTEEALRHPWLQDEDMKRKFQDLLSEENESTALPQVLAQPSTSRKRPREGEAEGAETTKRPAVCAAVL

[30] = target: Mitogen-activated protein kinase kinase kinase kinase 4 (Homo sapiens) (UniProt O95819); experiment: Inhibition of HGK (unknown origin) at 0.164 uM relative to control
[31] = target: Dual specificity tyrosine-phosphorylation-regulated kinase 2 (Homo sapiens) (UniProt Q92630); experiment: Inhibition of DYRK2 (unknown origin) at 0.164 uM relative to control
[32] = target: Mitogen-activated protein kinase 1 (Homo sapiens) (UniProt P28482); experiment: Inhibition of Erk2 (unknown origin) at 0.164 uM relative to control
[33] = target: Mitogen-activated protein kinase 11 (Homo sapiens) (UniProt Q15759); experiment: Inhibition of p38-beta2 (unknown origin) at 0.164 uM relative to control
[34] = target: MAP/microtubule affinity-regulating kinase 4 (Homo sapiens) (UniProt Q96L34); experiment: Inhibition of MARK4 (unknown origin) at 0.164 uM relative to control
[35] = target: Tyrosine-protein kinase Fer (Homo sapiens) (UniProt P16591); experiment: Inhibition of Fer (unknown origin) at 0.164 uM relative to control
[36] = Lipophilicity, log D of the compound; type: physicochemical; details: octanol/water
[37] = target: Ephrin type-A receptor 4 (Homo sapiens) (UniProt P54764); experiment: Inhibition of EPHA4 (unknown origin) at 0.164 uM relative to control
[38] = target: Calcium/calmodulin-dependent protein kinase type 1D (Homo sapiens) (UniProt Q8IU85); experiment: Inhibition of CamK1d (unknown origin) at 0.164 uM relative to control

Chain of Glycogen synthase kinase-3 alpha (Homo sapiens) (P49840 2-483 limits assumed): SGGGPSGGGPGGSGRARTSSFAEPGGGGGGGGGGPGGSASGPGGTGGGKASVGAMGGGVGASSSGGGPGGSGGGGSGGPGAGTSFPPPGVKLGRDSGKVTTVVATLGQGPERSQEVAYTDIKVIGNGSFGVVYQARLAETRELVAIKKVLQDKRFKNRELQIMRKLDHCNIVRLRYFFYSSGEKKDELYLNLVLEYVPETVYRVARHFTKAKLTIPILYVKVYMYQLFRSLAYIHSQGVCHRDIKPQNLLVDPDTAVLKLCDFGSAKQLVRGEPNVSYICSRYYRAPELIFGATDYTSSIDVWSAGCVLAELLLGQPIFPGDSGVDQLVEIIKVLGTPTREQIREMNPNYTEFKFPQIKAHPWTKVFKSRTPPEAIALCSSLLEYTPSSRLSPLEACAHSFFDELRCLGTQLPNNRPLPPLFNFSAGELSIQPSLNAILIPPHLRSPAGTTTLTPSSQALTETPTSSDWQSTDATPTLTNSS

Compound: Cc1n[nH]c(C)c1-c1ccc2c(NC(=O)c3ccc(N4CCN(C)CC4)cc3)n[nH]c2c1
- inhibition [1]: -1%

Compound: Cc1[nH]nc(C2CC2)c1-c1ccc2c(-c3ccc(N4CCN(C)CC4)nc3)n[nH]c2c1
- inhibition [2]: -8%
- inhibition [3]: 82.7%
- inhibition [4]: 2%
- inhibition [5]: 13.7%
- inhibition [6]: 86.3%
- inhibition [7]: 4.7%
- inhibition [8]: 38.7%
- inhibition [9]: -9.3%
- inhibition [10]: 18%
- inhibition [11]: 0.7%
- inhibition [12]: -0.3%
- inhibition [13]: -3.7%
- inhibition [14]: 2.3%
- inhibition [15]: 47.3%
- inhibition [16]: 2.3%
- inhibition [17]: -7.3%
- inhibition [18]: -5.3%

Compound: COC(=O)Nc1cc(-c2c(C3CC3)n[nH]c2C)cc2[nH]ncc12
- inhibition [19]: -5%
- inhibition [20]: 12%
- inhibition [21]: 0.7%
- inhibition [22]: 1.3%
- inhibition [23]: 14.7%
- inhibition [24]: 0.7%
- inhibition [25]: 1.3%
- inhibition [26]: 3%
- inhibition [27]: 6.3%
- inhibition [28]: 3.3%
- inhibition [29]: 9.7%
- inhibition [30]: 5%
- inhibition [31]: 4.7%
- inhibition [32]: 9%
- inhibition [33]: 1.7%
- inhibition [34]: 7.3%
- inhibition [35]: -1.3%
- logD [36]: 3.1
- inhibition [37]: -2.3%
- inhibition [38]: -9.3%
